Data reported in US20260130370A1, “PLANT ACTIVATOR” (IBIDEN CO., LTD., priority 2021, published 2026).

System: potherb mustard (“Mizuna”, Brassica rapa var. laciniifolia)
Experiment: Evaluation of the Mizuna (potherb mustard) growth
Format: in vivo
Conditions: 0.05 mg/L foliar spraying (300 L/10a) 9 and 12 days after sowing, harvested 21 days after sowing
Description: Dilutions were prepared by adding distilled water to the above-obtained trihydroxyoctadecaenoic acid solution, ketol fatty acid solution, and culture broth containing fatty acid metabolites, so that the final concentration of each of trihydroxyoctadecaenoic acid, ketol fatty acids, and fatty acid metabolites was 0.05 mg/L, and the resulting dilutions gave treatment solutions. A 72-well cell tray was filled with culture soil (TAKII & CO., LTD, trade name “Tanemaki Baido”), and the forced sprouting seeds of potherb mustard were sown in. After budding, the potherb mustard seedlings were thinned out for two plants per cell. Light condition was set for 12 hours for light period/12 hours for dark period. Water was supplied by irrigating with an appropriate amount of tap water about once every four days. 9 and 12 days after sowing, the plants were treated with foliar spraying by spraying each of the treatment solutions (300 L/10a) to the above-ground part of plants using a sprayer. The negative control was not subjected for the spraying of the treatment solution (“no treatment area”).
21 days after sowing, the plants were harvested and the wet weight of the above-ground part of plants per plant and the leaf length were measured.

**Q.** Which results are given for `CC/C=C\C/C=C\CC(=O)C(O)CCCCCCCC(=O)O` (centres unmarked) [ketol fatty acid, 9-hydroxy-10-oxo-12 (Z), 15 (Z)-octadecadienoic acid]?
**A.** wet weight of the above-ground part (average n=20, no treatment area 0.19 g/plant): little increase; leaf length (average n=20, no treatment area 8.1 cm): reduced
